Measured values published in US9920383B2, “Active substances for increasing the stress defense in plants to abiotic stress, and methods of finding them” (Bayer Intellectual Property GMBH, priority 2005, dated 2018).

How the values were obtained:
[1] = tested on: maize plants; assay: Chill-stress experiment (greenhouse) with maize plants, pre-emergence treatment; format: in vivo, maize cv. Lorenzo; settings: for Number of damaged plants (chloroses): chill stress 6 h at −2° C, 20 plants per group
Description: Maize seeds cv. Lorenzo were sown into 10-cm-pots into compost at a rate of 10 seeds per pot. All experimental groups consisted of in each case 4 pots. The sown seeds of test groups 1 and 2 were sprayed pre-emergence with 50 and 100 [g a.i./ha], respectively, of the compound 4-cyclopropylaminocarbonyl-N-(2-methoxybenzoyl)benzenesulfonamide (=VIII-3). The seeds of the control group remained untreated. The plants were raised under controlled conditions in a controlled-environment chamber [white light (long day: 16 h light, 8 h dark), 22° C. day-time temperature, 14° C. night-time temperature, 60% atmospheric humidity].
After germination, when the plants had attained a length of approx. 1 cm, 2 pots from each group were incubated for 6 h in a different controlled-environment chamber under chill-stress conditions at −2° C. Thereafter, these plants were returned to the others in the first controlled-environment chamber.
To evaluate the experiment quantitatively, the plants with chloroses of the leaf tips were counted. The total number of the plants per test group and cold stress treatment was 20, provided over 2 pots in each case.

[2] = tested on: maize plants; assay: Chill stress experiment (field) with maize plants, seed dressing; format: in vivo, maize (dent com); settings: for Chill damage [%]: number of plants with chill damage > 20% of the total number of plants in the test plot
Method: One control plant contains untreated seed. Approximately 8 days after the seed emerged, the seedlings were in the one-leaf stage and were exposed for 5 days to the following temperature conditions:
After this chill period, the test plots were scored. For this purpose, all plants were assessed individually, and plants with at least 20% chill symptoms based on the total leaf area (burns and/or chloroses) were considered to be damaged.

[3] = tested on: Zm.11840.1.A1_at: putative N-carbamyl-L-amino acid amidohydrolase; assay: Gene expression profiling (maize genome array), heat stress; format: in vivo, maize cv. Lorenzo; settings: vs unstressed solvent-dressed control
Method: (§1) Maize seeds cv. Lorenzo were dressed as described in example 1 with the compound VIII-3 (=4-cyclopropylaminocarbonyl-N-(2-methoxybenzoyl)benzenesulfonamide) or with solvent. The plants were raised for 10 days in a controlled-environment chamber (conditions: see example 1).
(§2) Thereafter, the plants were exposed to the following stress conditions: • (1) Heat stress: 6 h at 45° C. • (2) Drought stress: 7 days without irrigation, 24° C.
(§3) The control plants of the specific experimental group were kept under the standard conditions described in example 1 (temperature, irrigation).
(§4) After the stress treatment, the leaves of the stressed plants and of the unstressed control plants were harvested, shock-frozen in liquid nitrogen and stored at −80° C. until processed. All experiments were carried out in replications of in each case 2 pots.
(§5) The labeled RNA probes for the DNA chip hybridization were prepared as described in the protocols (Expression Analysis. Technical Manual) from Affymetrix (Affymetrix Inc., 3380 Central Expressway, Santa Clara, Calif., USA). First, total RNA was isolated from in each case 500 mg of the harvested leaves. In each case 10 μg of total RNA were used for the cDNA first- and second-strand synthesis. The cDNA was amplified with T7 polymerase and simultaneously labeled with biotin-UTP. In each case 20 μg of this biotinylated […] were employed for the hybridization of the maize genome array from Affymetrix. This DNA microarray contains DNA sequences whose totality represents 13339 genes. Thereafter, the DNA microarrays were washed in the Affymetrix Fluidics Station, stained with streptavidin/phycoerythrin (Molecular Probes, P/N S-866) and scanned with the appropriate Agilent Laser Scanner (Agilent Gene Array Scanner). The fluorescence data obtained were analyzed using Affymetrix's Microarray Suite 5 software. After the quality assurance had been performed, all DNA chip analyses were stored in a database. To determine relevant expression values (induction factors, repression factors), the absolute expression values of the genes from the respective stress experiments were compared with the values of the respective control experiments (i.e. without abiotic stress and solvent-dressing only), based on the scoring function predetermined by the Affymetrix software. The resulting 4 expression values per gene were averaged by calculating the median value. These median values are shown in the results tables as induction factors. Similarity comparisons of expression profiles of various experiments and cluster analyses were carried out using the “genedata expressionist” software from Genedata (Genedata, Maulbeerstr. 46, CH-4016 Basel, Switzerland).
(§6) The analysis of the expression profiles specifically searched for genes which are induced by the test substances only in conjunction with abiotic stress, but not by the substances or by stress alone. Such genes can be considered as indicators for additional anti-stress effects of the substances which exceed the known safener effect. The induction patterns of the indicator genes described permit the targeted finding of active substances for increasing the abiotic stress tolerance in crop plants. • a) Under heat stress conditions, i.e. the tested maize plants (dressed with 2 mg a.i. 4-cyclopropylaminocarbonyl-N-(2-methoxybenzoyl)benzenesulfonamide/g seeds) were exposed to a temperature of 45° C. for 6 hours 7 days after germination.
(§7) • Condition A: heat stress (6 hours, 45° C.) • Condition B: Seeds dressed with 4-cyclopropylaminocarbonyl-N-(2-methoxybenzoyl)benzenesulfonamide (VIII-3)/NO heat stress • Condition C: Seeds dressed with 4-cyclopropylaminocarbonyl-N-(2-methoxybenzoyl)benzenesulfonamide (VIII-3)+heat stress (6 hours, 45° C.).

[4] = tested on: Zm.13498.1.S1_at: membrane protein; assay: as above; format: in vivo, maize cv. Lorenzo; settings: vs unstressed solvent-dressed control
Method: as §1, §2, §3, §4, §5, §6, §7

[5] = tested on: Zm.3040.1.S1_at uricase II (E.C.1.7.3.3); nodule specific uricase; assay: as above; format: in vivo, maize cv. Lorenzo; settings: vs unstressed solvent-dressed control
Method: as §1, §2, §3, §4, §5, §6, §7

[6] = tested on: Zm.4274.1.S1_at: cytochrome P450; assay: as above; format: in vivo, maize cv. Lorenzo; settings: vs unstressed solvent-dressed control
Method: as §1, §2, §3, §4, §5, §6, §7

[7] = tested on: Zm12587.1.S1.s_at: glycosyltransferase; assay: as above; format: in vivo, maize cv. Lorenzo; settings: vs unstressed solvent-dressed control
Method: as §1, §2, §3, §4, §5, §6, §7

[8] = tested on: Zm18994.2.A1_at: putative serine transferase; assay: as above; format: in vivo, maize cv. Lorenzo; settings: vs unstressed solvent-dressed control
Method: as §1, §2, §3, §4, §5, §6, §7

[9] = seeds dressed with VIII-3 (2 mg a.i./g seeds), NO heat stress
[10] = seeds dressed with VIII-3 + heat stress (6 hours, 45° C.)

induction factor Zm.4274.1.S1_at, Condition B [6, 9]: 1.22 | induction factor Zm.4274.1.S1_at, Condition C [6, 10]: 1.93
Compound: COc1ccccc1C(=O)NS(=O)(=O)c1ccc(C(=O)NC2CC2)cc1 [VIII-3, 4-cyclopropylaminocarbonyl-N-(2-methoxybenzoyl)benzenesulfonamide]
Number of damaged plants (chloroses) ([1]; 50 g a.i./ha pre-emergence): 1 | Number of damaged plants (chloroses) ([1]; 100 g a.i./ha pre-emergence): 0 | occurrence of chill stress damage symptoms ([1]; at the higher dosage rate): completely prevents | chloroses at the leaf tips after chill stress ([1]; plants treated with the active substance, 24 hours after chill stress): either absent or only very weakly pronounced | plants showing damage symptoms ([1]; test groups kept exclusively under standard conditions without chill stress): None | damage symptoms which are the result of chill stress ([1]; treatment with the active substance (lower dosage rate)): markedly reduce | Chill damage [%] ([2]; dressed with 0.003 mg per seed): 12% | Chill damage [%] ([2]; dressed with 0.03 mg per seed): 12% | chill damage compared with control plot ([2]; test plots with dressing with active substance): significantly reduced | plants showing damage symptoms ([2]; test plots with dressing with active substance (both quantities)): approximately 12% | induction factor Zm.11840.1.A1_at, Condition B [3, 9]: 1.75 | induction factor Zm.11840.1.A1_at, Condition C [3, 10]: 4.10 | induction factor Zm.13498.1.S1_at, Condition B [4, 9]: 1.73 | induction factor Zm.13498.1.S1_at, Condition C [4, 10]: 4.45 | induction factor Zm.3040.1.S1_at, Condition B [5, 9]: 1.33 | induction factor Zm.3040.1.S1_at, Condition C [5, 10]: 2.48 | induction factor Zm12587.1.S1.s_at, Condition B [7, 9]: 1.45 | induction factor Zm12587.1.S1.s_at, Condition C [7, 10]: 2.33 | induction factor Zm18994.2.A1_at, Condition B [8, 9]: 1.46 | induction factor Zm18994.2.A1_at, Condition C [8, 10]: 2.66
